Like-named read-outs stand apart in the source and are kept apart here. Numbered stars: 1 amine (or outer) side, 2 acyl side, 3 side chain; on linkers, the order of the positions; unused ones are H or OH. Bridge positions count the residues as written; N and C are the ends. Square brackets hold non-standard residues; d marks the D form. Peptide text beside a SMILES is read from it. I, II: the chains in the order shown. X1 = O=C(COc1cccc2c1C1c3c(OCC(=O)NCCCCCCCCN[*:2])cccc3C2c2cccc(OCC(=O)NCCCCCCCCN[*:3])c21)NCCCCCCCCN[*:1]; Cha = N[C@@H](CC1CCCCC1)C(=O)O
Legend:
A549 cells [1] = test: cells
Procedure: (§1) HeLa S3 cells (human cervical carcinoma) were cultured in Minimum essential medium (MEM) containing 10% FBS, penicillin, and streptomycin. A549 cells (human lung carcinoma) and IMR90 cells (human fetal lung fibroblast) were cultured in Dulbecco’s modified Eagle’s medium (DMEM) with 10% FBS, penicillin, and streptomycin. All cells were cultured at 37 °C under a humidified atmosphere containing 5% CO2.
(§2) Jurkat, HeLa-S3, A549 cells (2.0 × 10^5 cells/mL) and IMR90 cells (1.0 × 10^5 cells/mL) were incubated in the presence of 3–7 for 1 h, and etoposide, cisplatin and celastrol for 24 h (50 μL) in cell culture medium under CO2 at 37 °C in 96-well plates (BD Falcon). MTT reagent (5 mg/mL) in PBS (10 μL) was then added to the cells. After incubation at 37 °C for 4 h, a formazan lysis solution (10% sodium dodecyl sulfate (SDS) in 0.01 N HCl) (100 μL) was added and the resultant solution was incubated overnight under the same conditions, which was followed by measurement of the absorbance at 570 nm using a microplate reader (ARVO, PerkinElmer).

HeLa-S3 cells [2] = test: cells
Procedure: as §1, §2

IMR90 cells [3] = test: cells
Procedure: as §1, §2

Jurkat cells [4] = test: cells
Procedure: as §1, §2

[5] = system: Ca^2+ concentrations in mitochondria and cytosol in HeLa-S3 cells; test: Rhod-2/AM and Rhod-4/AM emission (mitochondrial and cytosolic Ca2+) in HeLa-S3 cells; format: cell-based, human; conditions: 4 5 μM 1 h; for Emission of Rhod-4/AM (cytosolic Ca2+) in HeLa-S3 cells: celastrol 100 μM 2–6 h; for Emission of Rhod-2/AM (mitochondrial Ca2+) in HeLa-S3 cells: celastrol or cisplatin 100 μM 2–6 h
Procedure: (§3) Jurkat, HeLa-S3, and A549 cells (2.0 × 10^5 cells) were preincubated with Rhod-2/AM (final concentration = 5 μM) or Rhod-4/AM (final concentration = 5 μM) in medium under 5% CO2 at 37 °C for 30 min and then treated with 4 (final concentration = 2.5, 5, or 10 μM) for 0, 15, 30, 45, and 60 min. HeLa-S3 and A549 cells were detached by accutase, immediately after which the cells were suspended in 300 μL of cell culture medium and then analyzed on a flow cytometer (FACS Calibur cytometer, Becton), and the data were analyzed using the FlowJo software (FlowJo, LCC).
(§4) Jurkat, HeLa-S3, A549, and IMR90 cells (2.0 × 10^5 cells) were stained with Rhod-2/AM or Rhod-4/AM (final concentration = 5 μM) for 30 min at 37 °C under 5% CO2. The cells were washed with PBS and were treated with 4 (final concentration = 2.5, 5, or 10 μM) in cell culture medium for 30 and 60 min at 37 °C under 5% CO2. To test the effect of celastrol and cisplatin in HeLa-S3 and A549 cells, the cells were incubated with celastrol (final concentration = 100 μM) and cisplatin (final concentration = 100 μM) for 2–6 h. After washing with PBS, the cells were observed via fluorescence microscopy (BZ-X800, Keyence) using a Greiner CELLview Petri dish (35 × 10 mm^2). Emission images were observed using a TRITC filter (excitation 540 nm, emission 605 nm).
(§5) Jurkat, HeLa-S3, A549, and IMR90 cells (8.0 × 10^4 cells) were incubated with CCCP or 2-APB for 1 h and then stained with Rhod-2/AM or Rhod-4/AM (final concentration = 5 μM) for 30 min at 37 °C under 5% CO2. The cells were washed with PBS and were treated with 4 (final concentration = 2.5, 5, or 10 μM) in PBS for 0–60 min at 37 °C in a microplate reader (ARVO, PerkinElmer). Excitation at 540 nm and emission at 590 nm were used for the measurement of Rhod-2/AM and Rhod-4/AM on the microplate reader.

[6] = system: Ca^2+ concentrations in mitochondria and cytosol in A549 cells; test: Rhod-2/AM and Rhod-4/AM emission (mitochondrial and cytosolic Ca2+) in A549 cells; format: cell-based, human; conditions: 4 10 μM 1 h; celastrol 100 μM 2–6 h
Procedure: as §3, §4, §5

HeLa-S3 cells [7] = test: Costaining of ER and mitochondria (ERTracker Red, MitoTracker Green), confocal microscopy, HeLa-S3 cells; format: cell-based, human; conditions: 4 5 μM, 5 and 10 min; celastrol 100 μM
Procedure: (§6) Jurkat, HeLa-S3, A549, and IMR90 cells (2.0 × 10^5 cells) were incubated with 4 (final concentration = 2.5 μM (for Jurkat), 5 μM (for HeLa-S3), 10 μM (for A549) and 5 μM and 50 μM (for IMR90)) in cell culture medium at 37 °C under 5% CO2. After incubation, MitoTracker Green (final concentration = 100 nM (for Jurkat) or 500 nM (for HeLa-S3, A549 and IMR90)), or ERTracker Red (final concentration = 500 nM (for Jurkat) or 1 μM (for HeLa-S3, A549 and IMR90)) were applied for 1 h under the same conditions. After washing with PBS, the cells were observed via confocal fluorescence microscopy (FluoView, FV-1000, Olympus). Excitation at 473 nm and emissions from 485 to 585 nm were used for detecting the MitoTracker Green. Excitation at 559 nm and emissions from 570 to 670 nm were used for detecting the ERTracker Red. Exposure time was 20 μs/pixel.

A549 cells [8] = test: Costaining of ER and mitochondria (ERTracker Red, MitoTracker Green), confocal microscopy, A549 cells; format: cell-based, human; conditions: 4 10 μM, 15 min; celastrol 100 μM
Procedure: as §6

[9] = system: labile Fe^2+ in mitochondria of Jurkat cells; test: Mito-FerroGreen fluorescence microscopy in Jurkat cells; format: cell-based; conditions: 4 2.5 μM 1 h; celastrol 5 μM, etoposide 5 μM, cisplatin 100 μM 24 h
Procedure: (§7) Jurkat cells (2.0 × 10^5 cells) were treated with 4 (2.5 μM), etoposide (5 μM), cisplatin (100 μM) and celastrol (5 μM) and stained with Mito-FerroGreen (a probe for labile Fe^2+ in mitochondria) (5 μM) and zinquin (a probe for intracellular Zn^2+) (25 μM). The cell images were observed via fluorescence microscopy.

[10] = system: intracellular Zn^2+ in Jurkat cells; test: Zinquin fluorescence microscopy in Jurkat cells; format: cell-based; conditions: 4 2.5 μM 1 h; celastrol 5 μM, etoposide 5 μM, cisplatin 100 μM 24 h
Procedure: as §7

Jurkat cells [11] = format: cell-based; conditions: 1 h
Procedure: MTT reagent (5 mg/mL) in PBS (10 μL) was then added to the cells. After incubation at 37 °C for 4 h, a formazan lysis solution (10% sodium dodecyl sulfate (SDS) in 0.01 N HCl) (100 μL) was added and the resultant solution was incubated overnight under the same conditions, which was followed by measurement of the absorbance at 570 nm using a microplate reader (ARVO, PerkinElmer).

[12] = system: Ca^2+ concentrations in mitochondria and cytosol in Jurkat cells; test: Rhod-2/AM and Rhod-4/AM emission (mitochondrial and cytosolic Ca2+) in Jurkat cells; format: cell-based; conditions: 4 2.5 μM, 0–60 min
Procedure: as §3
Jurkat, HeLa-S3, A549, and IMR90 cells (2.0 × 10^5 cells) were stained with Rhod-2/AM or Rhod-4/AM (final concentration = 5 μM) for 30 min at 37 °C under 5% CO2. […] After washing with PBS, the cells were observed via fluorescence microscopy (BZ-X800, Keyence) using a Greiner CELLview Petri dish (35 × 10 mm^2). […]
as §5

[13] = system: Ca^2+ concentrations in mitochondria in IMR90 cells; test: Rhod-2/AM emission (mitochondrial Ca2+) in IMR90 cells; format: cell-based, human; conditions: 4 5 μM, 0–60 min
Procedure: as §4, §5

Jurkat cells [14] = test: Costaining of ER and mitochondria (ERTracker Red, MitoTracker Green), confocal microscopy, Jurkat cells; format: cell-based; conditions: 4 2.5 μM, 15 min
Procedure: as §6

IMR90 cells [15] = test: Costaining of ER and mitochondria (ERTracker Red, MitoTracker Green), confocal microscopy, IMR90 cells; format: cell-based, human; conditions: 4 5 or 50 μM, 15 or 60 min
Procedure: as §6

trypsin = trypsin (Sus scrofa, UniProt P00761); test: Stability after treatment with trypsin (RP-HPLC); conditions: 10 μM, trypsin 5 U/mL, 10 mM HEPES pH 7.5, 1 h, 37 °C
Sequence of trypsin (P00761 9-231): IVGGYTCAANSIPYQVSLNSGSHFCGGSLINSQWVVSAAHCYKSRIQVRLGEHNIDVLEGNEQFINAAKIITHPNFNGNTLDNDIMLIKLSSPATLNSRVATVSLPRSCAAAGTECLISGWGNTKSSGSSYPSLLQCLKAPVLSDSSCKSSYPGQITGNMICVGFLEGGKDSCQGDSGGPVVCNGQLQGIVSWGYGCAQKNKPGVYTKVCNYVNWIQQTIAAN
Procedure: 4 and 5 (10 μM) were incubated with trypsin (5 U/mL) in 10 mM 2-[4-(2-hydroxyethyl)-1-piperazinyl]ethanesulfonic acid ((HEPES), pH = 7.5) for 1 h at 37 °C and then analyzed via RP-HPLC (CH3CN (0.1% TFA)/H2O (0.1% TFA) = 20/80 to 70/30 (30 min), 1.0 mL/min).

CC1=C(O)C(=O)C=C2C1=CC=C1[C@@]2(C)CC[C@@]2(C)[C@@H]3C[C@](C)(C(=O)O)CC[C@]3(C)CC[C@]12C [celastrol]
EC50 (A549 cells [1]; Homo sapiens, A549, read-out: EC50 against A549 cells): 31 ± 2.2 µM | EC50 (HeLa-S3 cells [2]; Homo sapiens, HeLa S3, 24 h, read-out: EC50 against HeLa-S3 cells): 22 ± 6 µM | EC50 (IMR90 cells [3]; Homo sapiens, IMR-90, 24 h, read-out: EC50 against IMR90 cells): > 25 µM | EC50 (Jurkat cells [4]; Homo sapiens, Jurkat, 24 h, read-out: EC50 against Jurkat cells): 0.9 ± 0.1 µM | Emission of Rhod-4/AM (cytosolic Ca2+) in HeLa-S3 cells [5]: mitochondrial and cytoplasmic Ca^2+ overload | Emission of Rhod-2/AM (mitochondrial Ca2+) in HeLa-S3 cells [5]: mitochondrial and cytoplasmic Ca^2+ overload | Emission of Rhod-2/AM (mitochondrial Ca2+) in A549 cells [6]: mitochondrial Ca^2+ overload | Emission of Rhod-4/AM (cytosolic Ca2+) in A549 cells [6]: negligibly changed | Overlap of emission from MitoTracker Green and ERTracker Red in HeLa-S3 cells (HeLa-S3 cells [7]): weaker overlap | Overlap of emission from MitoTracker Green and ERTracker Red in A549 cells (A549 cells [8]): weaker overlap | Emission from Mito-FerroGreen (free Fe2+ in mitochondria) in Jurkat cells [9]: negligibly enhanced | Emission from zinquin (intracellular free Zn2+) in Jurkat cells [10]: negligibly enhanced

NCCCC[C@H](NC(=O)[C@H](CCCCN)NC(=O)[C@@H](N)CCCCN)C(=O)N[C@@H](CC1CCCCC1)C(=O)NCC(=O)NCCCCCCCCNC(=O)COc1cccc2c1C1c3c(OCC(=O)NCCCCCCCCNC(=O)CNC(=O)[C@H](CC4CCCCC4)NC(=O)[C@H](CCCCN)NC(=O)[C@H](CCCCN)NC(=O)[C@@H](N)CCCCN)cccc3C2c2cccc(OCC(=O)NCCCCCCCCNC(=O)CNC(=O)[C@H](CC3CCCCC3)NC(=O)[C@H](CCCCN)NC(=O)[C@H](CCCCN)NC(=O)[C@@H](N)CCCCN)c21 [compound 4]
EC50 (A549 cells [1]; 1 h): 2.4 ± 0.1 µM | EC50 (HeLa-S3 cells [2]; 1 h): 1.6 ± 0.1 µM | EC50 (IMR90 cells [3]; 1 h): > 12.5 µM | EC50 (IMR90 cells [3]; 5 h): 4.4 µM | EC50 (Jurkat cells [4]; 1 h): 0.7 ± 0.1 µM | EC50 (Jurkat cells [11]): 1.8 µM | Emission of Rhod-4/AM (cytosolic Ca2+) in Jurkat cells [12]: moderate∼weak enhancement | Emission of Rhod-4/AM (cytosolic Ca2+) in HeLa-S3 cells [5]: negligible enhancement | Emission of Rhod-2/AM (mitochondrial Ca2+) in HeLa-S3 cells [5]: enhancement of the red emission | Emission of Rhod-2/AM (mitochondrial Ca2+) in A549 cells [6]: enhancement of the red emission | Emission of Rhod-4/AM (cytosolic Ca2+) in A549 cells [6]: negligible enhancement | Emission of Rhod-2/AM (mitochondrial Ca2+) in IMR90 cells [13]: somewhat slower emission enhancement | Overlap of emission from MitoTracker Green and ERTracker Red in Jurkat cells (Jurkat cells [14]): considerable overlap | Overlap of emission from MitoTracker Green and ERTracker Red in HeLa-S3 cells (HeLa-S3 cells [7]): considerable overlap | Overlap of emission from MitoTracker Green and ERTracker Red in A549 cells (A549 cells [8]): considerable overlap | Overlap of emission from MitoTracker Green and ERTracker Red in IMR90 cells (IMR90 cells [15]): weak overlap | Emission from Mito-FerroGreen (free Fe2+ in mitochondria) in Jurkat cells [9]: negligibly enhanced | Emission from zinquin (intracellular free Zn2+) in Jurkat cells [10]: negligibly enhanced

NCCCC[C@@H]1NC(=O)CNC(=O)[C@H](CCC(=O)NCCCCCCCCNC(=O)COc2cccc3c2C2c4c(OCC(=O)NCCCCCCCCNC(=O)CC[C@@H]5NC(=O)[C@H](CC6CCCCC6)NC(=O)[C@H](CCCCN)NC(=O)[C@H](CCCCN)NC(=O)[C@H](CCCCN)NC(=O)CNC5=O)cccc4C3c3cccc(OCC(=O)NCCCCCCCCNC(=O)CC[C@@H]4NC(=O)[C@H](CC5CCCCC5)NC(=O)[C@H](CCCCN)NC(=O)[C@H](CCCCN)NC(=O)[C@H](CCCCN)NC(=O)CNC4=O)c32)NC(=O)[C@H](CC2CCCCC2)NC(=O)[C@H](CCCCN)NC(=O)[C@H](CCCCN)NC1=O [compound 5] (I: cyclo(KKK[Cha]EG) / II: cyclo(KKK[Cha]EG) / III: cyclo(KKK[Cha]EG); linker I:5-II:5-III:5 via X1)
EC50 (A549 cells [1]; read-out: EC50 against A549 cells, MTT, incubation 1 h at 37 °C): 9.5 ± 0.1 µM | EC50 (HeLa-S3 cells [2]; read-out: EC50 against HeLa-S3 cells, MTT, incubation 1 h at 37 °C): 8.5 ± 0.4 µM | EC50 (IMR90 cells [3]; read-out: EC50 against IMR90 cells, MTT, incubation 1 h at 37 °C): > 25 µM | EC50 (Jurkat cells [4]; read-out: EC50 against Jurkat cells, MTT, incubation 1 h at 37 °C): 1.6 ± 0.1 µM | Stability against trypsin digestion (trypsin): negligible decomposition

From paper PMC11375786, “Induction of Paraptotic Cell Death in Cancer Cells by Triptycene–Peptide Hybrids and the Revised Mechanism of Paraptosis II” (Biochemistry, 2024)
